# Assay results reported in BindingDB's records for patent US20230365590 (Shenzhen Chipscreen Biosciences, 2023).
# Biological target: Programmed cell death 1 ligand/protein 1 (Homo sapiens, UniProt Q15116+Q9NZQ7)
# Test: In Vitro Inhibitory Activity Against PD-1/PD-L1 Binding
# Protocol: The experiment process was carried out according to the flow required in the operating manual of the test reagent.The process was as follows:(1) Experiment preparation: A test compound was diluted to different concentration gradients with the dilution buffer (the highest final concentration in a 20 μL final reaction system was 10 μM). The His-PD-1 protein was diluted to 800 nM (the final concentration in the 20 final reaction system was 100 nM). The PD-L1-Fc fusion protein was diluted to 16 nM (the final concentration was 2 nM). […] All tests were conducted by use of multiple holes.(4) The fluorescence detector Tecan (Spark 10M) was used to detect the fluorescence signal of each hole. The excitation wavelength was 320 nm, and the emission wavelengths for detection were 620 nm and 665 nm, respectively. The strength of PD-1/PD-L1 binding refers to a fluorescence signal ratio Em665/Em620.(5) Calculation formula of binding inhibition rate of test compound: Inhibition rate (%)=[1−(fluorescence signal ratio of detected hole−fluorescence signal ratio of 100% inhibition negative control)]/(fluorescence signal ratio of 0% inhibition positive control−fluorescence signal ratio of 100% inhibition negative control)×100%. […]
# Sequence of Programmed cell death 1 ligand/protein 1 (Q9NZQ7 whole entry): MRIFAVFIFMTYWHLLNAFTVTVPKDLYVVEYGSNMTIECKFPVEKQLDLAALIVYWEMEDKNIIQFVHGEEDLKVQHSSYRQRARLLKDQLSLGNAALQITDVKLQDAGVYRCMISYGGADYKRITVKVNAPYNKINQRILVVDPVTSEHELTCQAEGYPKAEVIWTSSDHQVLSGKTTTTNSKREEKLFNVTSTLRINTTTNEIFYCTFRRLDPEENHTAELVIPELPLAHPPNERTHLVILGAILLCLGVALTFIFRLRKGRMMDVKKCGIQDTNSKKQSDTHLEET
# Sequence of Programmed cell death 1 ligand/protein 1 (Q15116 whole entry): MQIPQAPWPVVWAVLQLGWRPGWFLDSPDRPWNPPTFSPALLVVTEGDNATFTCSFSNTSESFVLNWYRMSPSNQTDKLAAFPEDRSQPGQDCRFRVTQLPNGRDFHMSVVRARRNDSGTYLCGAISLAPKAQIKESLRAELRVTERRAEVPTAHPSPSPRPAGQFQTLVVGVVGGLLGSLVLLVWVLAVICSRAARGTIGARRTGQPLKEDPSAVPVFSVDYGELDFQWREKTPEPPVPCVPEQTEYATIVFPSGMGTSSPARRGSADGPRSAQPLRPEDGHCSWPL
structure (smiles),measurement,value
"COCC12CCC(CCN3CCc4c(nc(C(=O)Nc5cccc(-c6cccc(NC(=O)c7nc8c(n7C)CCN(CCC79CCC(C(=O)O)(CC7)C9)C8)c6Cl)c5Cl)n4C)C3)(CC1)C2 [US20230365590, Compound I-6]",IC50,1.17 nM
